Data published in patent publication US4016159A, “Acylamino-cephem-carboxylic acids containing an amidino or guanidino group in the molecule” (Hoechst Aktiengesellschaft, priority 1973, dated 1977).
≈ marks a conversion by molar mass, not a printed value.

Columns and labels:
Assay type in all cases: cell-based
Streptococcus pyogenes A = experiment: Minimum inhibition concentration (MIC), Table 3; conditions: Germ: Streptococcus pyogenes A; for MIC: read-out: Minimum inhibition concentration MIC
Text: Minimum inhibition concentration MIC in γ/ml
Germ: Streptococcus pyogenes A

[1] = system: Staphylococcus aureus 285; experiment: Minimum inhibition concentration (MIC), Table 1; conditions: for MIC: Staphylococcus aureus, 285, Germ: Staphylococcus aureus 285, read-out: Minimum inhibition concentration (MIC); for Minimum inhibition concentration (MIC): Germ: Staphylococcus aureus 285
Text: (§1) Minimum inhibition concentration (MIC) in γ/ml
Germ: Staphylococcus aureus 285

Proteus mirabilis = experiment: Minimum inhibition concentration (MIC), Table 2; set-up: Minimum inhibition concentration (MIC): unit not given here; conditions: Germ: Proteus mirabilis; for MIC: read-out: Minimum inhibition concentration (MIC)
Text: Minimum inhibition concentration (MIC) in /ml

Streptococcus D = experiment: Minimum inhibition concentration (MIC), Table 4; conditions: Germ: Streptococcus D; for MIC: Streptococcus, read-out: Minimum inhibition concentration (MIC)
Text: as §1

[2] = system: Staphylococcus aureus SG 511; experiment: Minimum inhibition concentration (MIC), Table 5; conditions: for MIC: Staphylococcus aureus, SG511, Germ: Staphylococcus aureus SG 511, read-out: Minimum inhibition concentration (MIC)
Text: as §1
Germ: Staphylococcus aureus SG 511

SMILES | MIC (Streptococcus pyogenes A) | MIC [1] | MIC (Proteus mirabilis) | MIC (Streptococcus D) | Minimum inhibition concentration (MIC) (Streptococcus pyogenes A) | Minimum inhibition concentration (MIC) [1] | Minimum inhibition concentration (MIC) (Proteus mirabilis) | Minimum inhibition concentration (MIC) (Streptococcus D) | MIC [2] | Minimum inhibition concentration (MIC) ([2]; Germ: Staphylococcus aureus SG 511)
O=C(Cc1ccc(C2=NCCN2)cc1)NC1C(=O)N2C(C(=O)O)=C(CSc3nnco3)CSC12 (stereo not shown) [Example 124, 3-[(1,3,4-oxadiazole-2-yl)-thiomethyl]-7-[4-(imidazoline-2-yl)-phenylacetamido]-Δ 3-cephem-4-carboxylic acid] | 0.008 to 0.0156 µg/mL (≈ 0.016 to 0.0312 µM) | 0.5 to 1.25 µg/mL (≈ 0.999 to 2.5 µM) | 3.1 to 12.5 µg/mL (≈ 6.19 to 25 µM) | 10 to 50 µg/mL (≈ 20 to 99.9 µM) | – | – | – | – | – | –
O=C(Cc1ccc(C2=NCCCN2)cc1)NC1C(=O)N2C(C(=O)O)=C(CSc3nncs3)CSC12 (stereo not shown) [Example 19, 3-[(1,3,4-thiadiazole-2-yl)-thiomethyl]-7-[4-(1,4,5,6-tetrahydropyrimide-2-yl)-phenylacetamido]-Δ 3-cephem-4-carboxylic acid] | 0.000391 to 0.0078 µg/mL (≈ 0.000737 to 0.0147 µM) | 0.5 to 1.25 µg/mL (≈ 0.942 to 2.36 µM) | 3.1 to 12.5 µg/mL (≈ 5.84 to 23.6 µM) | 10 to 50 µg/mL (≈ 18.8 to 94.2 µM) | – | – | – | – | – | –
O=C(Cc1ccc(C2=NCCCN2)cc1)NC1C(=O)N2C(C(=O)O)=C(CSc3nnc[nH]3)CSC12 (stereo not shown) [Example 94, 3-[(triazole-2-yl)-thiomethyl]-7-[4-(1,4,5,6-tetrahydro-pyrimide-2-yl)-phenylacetamido]-Δ3-cephem-4-carboxylic acid] | – | – | – | – | 0.008 to 0.0156 µg/mL | 1.6 to 2.5 µg/mL | 25 | 10 to 50 µg/mL | – | –
Cc1nnc(SCC2=C(C(=O)O)N3C(=O)C(NC(=O)Cc4ccc(C5=NCCCN5)cc4)C3SC2)s1 (stereo not shown) [Example 11, 3-[(5-methyl-1,3,4-thiadiazole-2-yl)-thiomethyl]-7-[4-(1,4,5,6-tetrahydro-pyrimide-2-yl)-phenylacetamido]-Δ 3-cephem-4-carboxylic acid] | 0.008 to 0.0156 µg/mL (≈ 0.0147 to 0.0286 µM) | 0.5 to 1.25 µg/mL (≈ 0.918 to 2.29 µM) | 3.1 to 12.5 µg/mL (≈ 5.69 to 22.9 µM) | 10 to 50 µg/mL (≈ 18.4 to 91.8 µM) | – | – | – | – | – | –
Nn1cnnc1SCC1=C(C(=O)O)N2C(=O)C(NC(=O)Cc3ccc(C4=NCCCN4)cc3)C2SC1 (stereo not shown) [Example 100, 3-[(4-amino-4H-1,2,4-triazole-3-yl)-thiomethyl]-7-[4-(1,4,5,6-tetrahydropyrimide-2-yl)-phenylacetamido]-Δ3-cephem-4-carboxylic acid] | 0.008 to 0.0156 µg/mL (≈ 0.0151 to 0.0295 µM) | – | 3.1 to 12.5 µg/mL (≈ 5.86 to 23.6 µM) | – | – | – | – | – | – | –
Cc1nsc(SCC2=C(C(=O)O)N3C(=O)C(NC(=O)Cc4ccc(C5=NCCCN5)cc4)C3SC2)n1 (stereo not shown) [Example 108, 3-[(3-methyl-1,2,4-thiadiazole-5-yl)-thiomethyl]-7-[4-(1,4,5,6-tetrahydropyrimide-22-yl)-phenylacetamido]-Δ3-cephem-4-carboxylic acid] | 0.000391 to 0.0078 µg/mL (≈ 0.000718 to 0.0143 µM) | 0.156 to 0.391 µg/mL (≈ 0.286 to 0.718 µM) | – | 10 to 50 µg/mL (≈ 18.4 to 91.8 µM) | – | – | – | – | 0.0625 to 0.078 µg/mL (≈ 0.115 to 0.143 µM) | –
Cc1nnc(SCC2=C(C(=O)O)N3C(=O)C(NC(=O)Cc4ccc(C5=NCCCN5)cc4)C3SC2)n1N (stereo not shown) [Example 101, 3-[(4-amino-5-methyl-1,2,4-triazole-3-yl)-thiomethyl]-7-[4-(1,4,5,6-tetrahydropyrimide-2-yl)-phenylacetamido]-Δ3-cephem-4-carboxylic acid] | – | 0.5 to 1.25 µg/mL (≈ 0.921 to 2.3 µM) | 25 µg/mL (≈ 46.1 µM) | – | – | – | – | – | – | –
CC(C)c1csc(SCC2=C(C(=O)O)N3C(=O)C(NC(=O)Cc4ccc(C5=NCCN5)cc4)C3SC2)n1 (stereo not shown) [Example 112, 3-[(4-isopropyl-thiazole-2-yl)-thiomethyl]-7-[4-(imidazoline-2-yl)-phenylacetamido]-Δ3-cephem-4-carboxylic acid] | 0.000391 to 0.0078 µg/mL (≈ 0.000701 to 0.014 µM) | 0.156 to 0.391 µg/mL (≈ 0.28 to 0.701 µM) | – | 0.196 to 6.25 µg/mL (≈ 0.351 to 11.2 µM) | – | – | – | – | 0.0625 to 0.078 µg/mL (≈ 0.112 to 0.14 µM) | –
O=C(Cc1ccc(C2=NCCCN2)cc1)NC1C(=O)N2C(C(=O)O)=C(CSc3ccncc3)CSC12 (stereo not shown) [Example 97, 3-(4-pyridyl-thiomethyl)-7-[4-(1,4,5,6-tetrahydropyrimide-2-yl)-phenylacetamido]-Δ3-cephem-4-carboxylic acid] | 0.000391 to 0.0078 µg/mL (≈ 0.000747 to 0.0149 µM) | 1.6 to 2.5 µg/mL (≈ 3.06 to 4.77 µM) | 25 µg/mL (≈ 47.7 µM) | 10 to 50 µg/mL (≈ 19.1 to 95.5 µM) | – | – | – | – | – | –

Second part, the compound after the results:

MIC (Streptococcus pyogenes A) | MIC [1] | MIC (Proteus mirabilis) | MIC (Streptococcus D) | Minimum inhibition concentration (MIC) (Streptococcus pyogenes A) | Minimum inhibition concentration (MIC) [1] | Minimum inhibition concentration (MIC) (Proteus mirabilis) | Minimum inhibition concentration (MIC) (Streptococcus D) | MIC [2] | Minimum inhibition concentration (MIC) ([2]; Germ: Staphylococcus aureus SG 511) | SMILES
0.008 to 0.0156 µg/mL (≈ 0.0164 to 0.0319 µM) | 0.156 to 0.391 µg/mL (≈ 0.319 to 0.8 µM) | 3.1 to 12.5 µg/mL (≈ 6.35 to 25.6 µM) | 10 to 50 µg/mL (≈ 20.5 to 102 µM) | – | – | – | – | – | – | Cn1nnnc1SCC1=C(C(=O)O)N2C(=O)C(NC(=O)Cc3ccc(C(=N)N)cc3)C2SC1 (stereo not shown) [Example 89, 3-[(1-methyl-1H-tetrazole-5-yl)-thiomethyl]-7-[4-amidino-phenylacetamido]-Δ 3-cephem-4-carboxylic acid]
– | 1.6 to 2.5 µg/mL (≈ 3.28 to 5.13 µM) | 25 µg/mL (≈ 51.3 µM) | – | – | – | – | – | – | – | Cc1n[nH]c(SCC2=C(C(=O)O)N3C(=O)C(NC(=O)Cc4ccc(C(=N)N)cc4)C3SC2)n1 (stereo not shown) [Example 23, 3-[(5-methyl-1,2,4-triazole-3-yl)-thiomethyl]-7-(4-amidino-phenylacetamido)-Δ 3-cephem-4-carboxylic acid]
0.008 to 0.0156 µg/mL (≈ 0.0151 to 0.0294 µM) | 0.156 to 0.391 µg/mL (≈ 0.294 to 0.737 µM) | 3.1 to 12.5 µg/mL (≈ 5.84 to 23.6 µM) | 0.196 to 6.25 µg/mL (≈ 0.369 to 11.8 µM) | – | – | – | – | – | – | Cc1nnc(SCC2=C(C(=O)O)N3C(=O)C(NC(=O)Cc4ccc(C5=NCCN5)cc4)C3SC2)s1 (stereo not shown) [Example 12, 3-[(5-methyl-1,3,4-thiadiazole-2-yl)-thiomethyl]-7-[4-(imidazoline-2-yl)-phenylacetamido]-Δ 3-cephem-4-carboxylic acid]
– | 1.6 to 2.5 µg/mL (≈ 2.96 to 4.63 µM) | 25 µg/mL (≈ 46.3 µM) | 10 to 50 µg/mL (≈ 18.5 to 92.7 µM) | – | – | – | – | – | – | O=C(Cc1ccc(C2=NCCCN2)cc1)NC1C(=O)N2C(C(=O)O)=C(CSc3cccc[n+]3[O-])CSC12 (stereo not shown) [Example 107, 3-[(1-oxido-2-pyridyl)-thiomethyl]-7-[4-(1,4,5,6-tetrahydropyrimide-2-yl)-phenylacetamido]-Δ3-cephem-4-carboxylic acid]
– | 0.5 to 1.25 µg/mL (≈ 1.06 to 2.64 µM) | 25 µg/mL (≈ 52.8 µM) | – | – | – | – | – | – | – | N=C(N)c1ccc(CC(=O)NC2C(=O)N3C(C(=O)O)=C(CSc4nc[nH]n4)CSC23)cc1 (stereo not shown) [Example 24, 3-[(1,2,4-triazole-3-yl)-thiomethyl]-7-(4-amidino-phenylacetamido)-Δ3-cephem-4-carboxylic acid]
0.000391 to 0.0078 µg/mL (≈ 0.000757 to 0.0151 µM) | 0.156 to 0.391 µg/mL (≈ 0.302 to 0.757 µM) | 3.1 to 12.5 µg/mL (≈ 6 to 24.2 µM) | 10 to 50 µg/mL (≈ 19.4 to 96.8 µM) | – | – | – | – | – | – | CCCc1nnc(SCC2=C(C(=O)O)N3C(=O)C(NC(=O)Cc4ccc(C(=N)N)cc4)C3SC2)o1 (stereo not shown) [Example 44, 3-[(5-n-propyl-1,3,4-oxadiazole-2-yl)-thiomethyl]-7-(4-amidino-phenylacetamido)-Δ 3-cephem-4-carboxylic acid]
0.000391 to 0.0078 µg/mL (≈ 0.00069 to 0.0138 µM) | 0.156 to 0.391 µg/mL (≈ 0.275 to 0.69 µM) | – | 10 to 50 µg/mL (≈ 17.6 to 88.2 µM) | – | – | – | – | 0.0196 to 0.0391 µg/mL (≈ 0.0346 to 0.069 µM) | – | N=C(N)c1ccc(OCC(=O)NC2C(=O)N3C(C(=O)O)=C(CSc4nnnn4-c4ccccc4)CSC23)cc1 (stereo not shown) [Example 31, 3-[(1-phenyl-1-H-tetrazole-5yl)-thiomethyl]-7-(4-amidinophenoxyacetamido)-Δ3-cephem-4-carboxylic acid]
0.008 to 0.0156 µg/mL (≈ 0.0132 to 0.0258 µM) | 0.5 to 1.25 µg/mL (≈ 0.825 to 2.06 µM) | – | 10 to 50 µg/mL (≈ 16.5 to 82.5 µM) | – | – | – | – | 0.0625 to 0.078 µg/mL (≈ 0.103 to 0.129 µM) | – | O=C(Cc1ccc(C2=NCCCN2)cc1)NC1C(=O)N2C(C(=O)O)=C(CSc3nc(-c4ccccc4)cs3)CSC12 (stereo not shown) [Example 14, 3-[(4-phenyl-thiazole-2-yl)-thiomethyl]-7-[4-(1,4,5,6-tetrahydropyrimide-2-yl)-phenylacetamido]-Δ 3-cephem-4-carboxylic acid]
0.000391 to 0.0078 µg/mL (≈ 0.000725 to 0.0145 µM) | 0.156 to 0.391 µg/mL (≈ 0.289 to 0.725 µM) | – | 0.196 to 6.25 µg/mL (≈ 0.363 to 11.6 µM) | – | – | – | – | 0.0625 to 0.078 µg/mL (≈ 0.116 to 0.145 µM) | – | N=C(N)c1ccc(CC(=O)NC2C(=O)N3C(C(=O)O)=C(CSc4nc5ccccc5s4)CSC23)cc1 (stereo not shown) [Example 92, 3-[benzothiazole-2-yl-thiomethyl]-7-[4-amidino-phenylacetamido]-Δ 3-cephem-4-carboxylic acid]
– | – | – | – | 0.000391 to 0.0078 µg/mL | 0.5 to 1.25 µg/mL | – | 10 to 50 µg/mL | – | 0.0625 to 0.078 µg/mL | Cc1csc(SCC2=C(C(=O)O)N3C(=O)C(NC(=O)COc4ccc(C(=N)N)cc4)C3SC2)n1 (stereo not shown) [Example 64, 3-[(4-methyl-1,3-thiazole-2-yl)-thiomethyl]-7-(4-amidinophenoxyacetamido)-Δ 3-cephem-4-carboxylic acid]
